Active and inactive are the calls of the source.
Assays:
Cytochrome P450 1A2 = molecular target: T1, Cytochrome P450 1A2 (Homo sapiens, UniProt P05177);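 also: PubChem cytochrome P450 panel assay, CYP1A2 panel member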
T1 sequence (P05177 whole entry): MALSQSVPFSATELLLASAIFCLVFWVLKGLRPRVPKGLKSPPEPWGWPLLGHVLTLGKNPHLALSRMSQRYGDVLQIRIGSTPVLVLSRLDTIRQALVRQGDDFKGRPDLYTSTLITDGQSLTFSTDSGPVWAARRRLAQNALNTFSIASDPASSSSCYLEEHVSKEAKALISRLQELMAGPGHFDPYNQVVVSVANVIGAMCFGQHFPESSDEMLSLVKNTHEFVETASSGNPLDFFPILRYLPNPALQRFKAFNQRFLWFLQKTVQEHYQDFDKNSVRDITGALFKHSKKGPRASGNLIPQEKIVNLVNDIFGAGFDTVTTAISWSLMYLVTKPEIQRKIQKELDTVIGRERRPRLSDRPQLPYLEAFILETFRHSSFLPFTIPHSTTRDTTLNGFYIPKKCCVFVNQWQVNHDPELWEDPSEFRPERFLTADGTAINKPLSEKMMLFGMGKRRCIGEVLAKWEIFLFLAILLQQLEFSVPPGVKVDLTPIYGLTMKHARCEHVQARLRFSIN

[1] = molecular target: Luciferin 4-monooxygenase (Photinus pyralis, UniProt P08659); assay: firefly luciferase enzyme inhibitors, dose response, biochemical, luminescence (AID 1891)
Chain of Luciferin 4-monooxygenase (P08659 whole entry): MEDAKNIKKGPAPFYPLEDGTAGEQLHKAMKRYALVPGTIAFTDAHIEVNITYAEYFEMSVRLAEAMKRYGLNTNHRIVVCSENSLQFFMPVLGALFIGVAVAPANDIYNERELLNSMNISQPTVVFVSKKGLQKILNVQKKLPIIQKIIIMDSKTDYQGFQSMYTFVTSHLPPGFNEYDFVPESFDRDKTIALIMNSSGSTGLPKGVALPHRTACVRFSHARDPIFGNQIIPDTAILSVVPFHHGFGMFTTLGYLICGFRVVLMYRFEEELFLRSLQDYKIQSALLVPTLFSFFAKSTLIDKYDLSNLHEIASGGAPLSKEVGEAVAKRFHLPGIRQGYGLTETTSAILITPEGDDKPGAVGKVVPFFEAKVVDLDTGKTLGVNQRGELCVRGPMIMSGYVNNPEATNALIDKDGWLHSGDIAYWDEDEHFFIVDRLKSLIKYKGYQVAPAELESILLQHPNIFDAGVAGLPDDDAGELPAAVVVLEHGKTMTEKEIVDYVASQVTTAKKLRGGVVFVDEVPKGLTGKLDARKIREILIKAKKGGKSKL

[2] = Luminescence Cell-Based Dose Confirmation HTS to Identify Inhibitors of Platelet Dense Granule Release. [Related pubchem assays: 1663 (Primary HTS), 1678 (Summary of Project)]; type: functional
[3] = molecular target: T2, Replicative DNA helicase DnaB (Mycobacterium tuberculosis, UniProt P9WMR3); assay: DnaB intein splicing inhibitors, dose response, biochemical, cell-free fluorescence (AID 449749); type: functional
T2 sequence (P9WMR3 whole entry): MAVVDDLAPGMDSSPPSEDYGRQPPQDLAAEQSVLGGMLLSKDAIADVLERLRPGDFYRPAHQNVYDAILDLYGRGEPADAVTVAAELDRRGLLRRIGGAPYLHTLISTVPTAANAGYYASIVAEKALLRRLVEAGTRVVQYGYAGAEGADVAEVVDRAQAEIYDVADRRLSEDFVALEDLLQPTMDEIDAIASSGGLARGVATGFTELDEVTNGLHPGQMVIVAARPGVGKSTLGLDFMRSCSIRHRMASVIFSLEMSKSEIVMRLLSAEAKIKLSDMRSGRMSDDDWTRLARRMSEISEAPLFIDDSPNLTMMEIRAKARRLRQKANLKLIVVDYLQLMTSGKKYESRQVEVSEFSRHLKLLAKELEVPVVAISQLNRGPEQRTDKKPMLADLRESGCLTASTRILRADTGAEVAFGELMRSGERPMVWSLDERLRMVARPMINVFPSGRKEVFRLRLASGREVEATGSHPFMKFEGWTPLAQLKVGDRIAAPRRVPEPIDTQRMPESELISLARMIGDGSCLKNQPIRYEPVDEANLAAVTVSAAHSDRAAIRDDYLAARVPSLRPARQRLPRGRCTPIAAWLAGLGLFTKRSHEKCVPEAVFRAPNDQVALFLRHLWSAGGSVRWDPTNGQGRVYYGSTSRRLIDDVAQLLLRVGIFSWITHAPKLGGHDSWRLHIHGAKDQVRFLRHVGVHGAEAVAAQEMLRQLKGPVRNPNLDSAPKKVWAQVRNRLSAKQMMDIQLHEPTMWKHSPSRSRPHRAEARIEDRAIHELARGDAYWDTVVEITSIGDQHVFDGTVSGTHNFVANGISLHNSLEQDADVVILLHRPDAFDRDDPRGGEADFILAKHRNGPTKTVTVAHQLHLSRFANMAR

Protein RecA = molecular target: T3, Protein RecA (Mycobacterium tuberculosis, UniProt P9WHJ3); assay: Fluorescence Cell-Free Homogeneous Dose Retest to Identify Inhibitors of RecA-Intein Splicing Activity. [Related pubchem assays (depositor defined):AID2097, AID2223, AID489010, AID492950]; type: functional
T3 sequence (P9WHJ3 whole entry): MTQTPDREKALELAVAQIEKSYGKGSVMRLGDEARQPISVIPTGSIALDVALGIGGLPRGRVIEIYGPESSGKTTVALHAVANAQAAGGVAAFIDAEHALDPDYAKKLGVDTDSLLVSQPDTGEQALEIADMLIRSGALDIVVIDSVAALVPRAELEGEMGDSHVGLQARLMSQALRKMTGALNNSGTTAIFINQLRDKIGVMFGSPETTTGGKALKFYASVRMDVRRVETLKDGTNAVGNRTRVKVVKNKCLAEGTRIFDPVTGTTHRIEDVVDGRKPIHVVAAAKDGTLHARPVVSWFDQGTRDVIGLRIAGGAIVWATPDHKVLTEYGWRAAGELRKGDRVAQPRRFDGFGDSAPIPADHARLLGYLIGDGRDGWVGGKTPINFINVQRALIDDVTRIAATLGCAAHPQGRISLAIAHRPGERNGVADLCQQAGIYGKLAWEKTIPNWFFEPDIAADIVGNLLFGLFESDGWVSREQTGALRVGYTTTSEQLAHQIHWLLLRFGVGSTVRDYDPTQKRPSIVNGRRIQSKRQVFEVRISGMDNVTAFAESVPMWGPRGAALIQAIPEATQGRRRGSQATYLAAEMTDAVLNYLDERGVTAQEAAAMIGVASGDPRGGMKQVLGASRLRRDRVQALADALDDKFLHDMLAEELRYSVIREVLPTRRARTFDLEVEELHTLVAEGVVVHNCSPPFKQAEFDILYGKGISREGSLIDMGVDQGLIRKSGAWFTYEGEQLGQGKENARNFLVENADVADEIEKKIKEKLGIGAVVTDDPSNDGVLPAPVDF

Cytochrome P450 2C19 = Cytochrome P450 2C19 (Homo sapiens, UniProt P33261); assay: Cytochrome panel assay with activity outcomes. Panel member name: p450-cyp2c19 Compounds with AC50 equal or less than 10 uM are considered active; type: functional
Chain of Cytochrome P450 2C19 (P33261 whole entry): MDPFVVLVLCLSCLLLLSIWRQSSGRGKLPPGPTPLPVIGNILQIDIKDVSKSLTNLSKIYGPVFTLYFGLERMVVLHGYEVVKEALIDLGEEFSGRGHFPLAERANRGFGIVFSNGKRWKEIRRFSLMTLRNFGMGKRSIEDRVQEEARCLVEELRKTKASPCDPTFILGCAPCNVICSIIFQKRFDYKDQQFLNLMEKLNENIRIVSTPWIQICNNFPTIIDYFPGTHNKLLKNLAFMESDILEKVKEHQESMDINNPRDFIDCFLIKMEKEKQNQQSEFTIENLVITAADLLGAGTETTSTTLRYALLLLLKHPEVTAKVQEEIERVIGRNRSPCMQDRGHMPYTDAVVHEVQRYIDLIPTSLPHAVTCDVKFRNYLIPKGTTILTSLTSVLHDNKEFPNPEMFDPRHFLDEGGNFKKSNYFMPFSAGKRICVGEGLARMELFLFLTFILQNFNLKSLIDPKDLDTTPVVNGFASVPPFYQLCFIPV

Cytochrome P450 3A4 = Cytochrome P450 3A4 (Homo sapiens, UniProt P08684);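 also: CYP3A4 tested as one member of a cytochrome P450 panel screen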
Chain of Cytochrome P450 3A4 (P08684 whole entry): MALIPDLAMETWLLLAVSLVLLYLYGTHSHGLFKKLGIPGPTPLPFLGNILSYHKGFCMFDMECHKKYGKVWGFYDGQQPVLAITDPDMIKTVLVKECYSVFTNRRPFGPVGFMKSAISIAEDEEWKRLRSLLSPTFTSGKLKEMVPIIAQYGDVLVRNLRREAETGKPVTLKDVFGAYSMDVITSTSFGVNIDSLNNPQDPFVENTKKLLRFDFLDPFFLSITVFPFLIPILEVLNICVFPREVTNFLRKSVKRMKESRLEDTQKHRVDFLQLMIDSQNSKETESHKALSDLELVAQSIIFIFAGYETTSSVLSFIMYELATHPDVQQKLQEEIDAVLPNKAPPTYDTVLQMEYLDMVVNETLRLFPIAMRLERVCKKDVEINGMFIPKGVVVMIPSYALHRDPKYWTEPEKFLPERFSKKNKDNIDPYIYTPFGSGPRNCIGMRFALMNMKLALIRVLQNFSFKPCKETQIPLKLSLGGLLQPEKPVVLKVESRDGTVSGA

[4] = inhibitors of intracellular T. cruzi replication, confirmation, NIH3T3 host cells, beta-gal luminescence (AID 2044); type: functional, cell-based;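 also: intracellular parasites grown in NIH/3T3 mouse fibroblasts as host cells; luminescent beta-galactosidase reporter signal from transgenic T. cruzi replicating inside host cells; inhibitors lower the luminescence signal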
[5] = cytotoxicity toward NIH3T3 fibroblasts, dose response, counter-screen, cell-based, ATP luminescence, mouse fibroblasts (AID 2010); type: functional;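 also: cells exposed to compound for about 90 hours before reading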

## Cn1c(N)nc2c(nc(OCc3ccccc3)n2[C@@H]2O[C@H](CO)[C@@H](O)[C@@H]2O)c1=O
Cytochrome P450 1A2
  AC50: 0.00251 µM (inconclusive)

## CCOC1OC2C(CO)OC(n3cnc4c(N)ncnc43)C2O1 (centres undefined)
[1]
  EC50: > 112 µM (not active)
[2]
  EC50: 6.37 µM (active)

## [O-][n+]1c2c(nc3c1-c1ccccc1C3O)CCCC2 (centres undefined)
[3]
  AC50: 19.4 µM (active)
Protein RecA
  EC50: 18.6 µM (active)

## O=C(Oc1ccc(-n2cnnn2)cc1)c1ccco1
[3]
  AC50: 15.3 µM (active)
Protein RecA
  EC50: 12.7 µM (active)

## COc1cc(C2NC(=O)NC(O)(C(F)(F)F)C2C(=O)c2ccc(Cl)cc2)ccc1O (centres undefined)
Cytochrome P450 2C19; read-out: AC50
  AC50: 11.2 µM (inconclusive)
Cytochrome P450 1A2
  AC50: 39.8 µM (inconclusive)
Cytochrome P450 3A4
  AC50: 15.8 µM (inconclusive)

## COc1ccc(NC(=O)N2CC[C@@]3(CCCN(C(C)=O)C3)C2)cc1
Cytochrome P450 1A2
  AC50: 39.8 µM (inconclusive)

## O=C(NNS(=O)(=O)c1ccccc1)c1cccnc1
[1]
  EC50: > 112 µM (not active)
[2]
  EC50: > 112 µM (not active)
Cytochrome P450 3A4
  AC50: 3.98 µM (inconclusive)

## CC(C)Oc1ccc(CNC(=O)c2ccc3c(c2)N(C)CCS3)cc1
[1]
  EC50: 20.4 µM (active)
[2]
  EC50: > 112 µM (not active)

## COC(=O)c1sc(N)c(C(=O)OC)c1Cn1ncc(Cl)c(Cl)c1=O
[3]
  AC50: 2.66 µM (active)
Protein RecA
  EC50: 0.541 µM (active)

## O=C(NC(c1ccccc1)c1ccccc1)c1ccc(O)nn1
[1]
  EC50: > 112 µM (not active)
[2]
  EC50: 5.32 µM (active)

## COc1ccccc1CC(=O)NNC(=O)CN(C)S(=O)(=O)c1ccc(Cl)cc1
[1]
  EC50: > 112 µM (not active)
[2]
  EC50: > 112 µM (not active)

## Cc1ccc(Oc2nc3ccccn3c(=O)c2/C=C(\C#N)C(=O)NC2CCS(=O)(=O)C2)cc1 (centres undefined)
[1]
  EC50: > 112 µM (not active)
[2]
  EC50: 8.55 µM (active)

## COC(=O)c1[nH]c2cccc(OC)c2c1NC(=O)CN1CCOCC1
[1]
  EC50: > 112 µM (not active)
[2]
  EC50: > 112 µM (not active)

## CC1(c2ccccc2)NC(=O)N(CC(=O)N2CCN(S(=O)(=O)c3ccccc3[N+](=O)[O-])CC2)C1=O (centres undefined)
[1]
  EC50: > 112 µM (not active)
[2]
  EC50: > 112 µM (not active)

## Nc1c(NC=O)c(=O)n(Cc2ccccc2)c(=O)n1Cc1ccccc1
[1]
  EC50: > 112 µM (not active)
[2]
  EC50: > 112 µM (not active)

## CCCc1n[nH]c2c1C(c1ccc(OC(=O)N3CCOCC3)c(OC)c1)C(C#N)=C(N)O2 (centres undefined)
[3]
  AC50: 32.2 µM (active)
Protein RecA
  EC50: 10 µM (active)

## CC(=O)c1ccc(NC(S)=NC(C)CCc2ccccc2)cc1 (centres undefined)
[1]
  EC50: > 112 µM (not active)
[2]
  EC50: > 112 µM (not active)

## O=c1c(-c2ccc(Cl)cc2)[n+]([O-])c2ccccc2n1OCc1ccccn1
Cytochrome P450 2C19; read-out: AC50
  AC50: 2.82 µM (inconclusive)
Cytochrome P450 1A2
  AC50: 1.26 µM (inconclusive)
Cytochrome P450 3A4
  AC50: 7.08 µM (inconclusive)

## Cc1ccc(C2C(C#N)=C(N)Oc3[nH]c(-c4ccccc4)nc32)o1 (centres undefined)
[3]
  AC50: 21.5 µM (active)
Protein RecA
  EC50: 5.11 µM (active)

## COc1ncc2nc(-c3cc(F)cc(F)c3)c(=O)n(C[C@H]3CCCO3)c2n1
Cytochrome P450 2C19; read-out: AC50
  AC50: 31.6 µM (inconclusive)
Cytochrome P450 3A4
  AC50: 25.1 µM (inconclusive)

## CCOc1ccc(CN2CCN(CC3=Cc4cccc(OC)c4OC3)CC2CCO)cc1 (centres undefined)
[4]
  EC50: 303 nM (active)
[5]
  EC50: > 60 µM (not active)
[3]
  AC50: > 380 µM (inactive)
Protein RecA
  EC50: > 380 µM (inactive)

## COc1ccc(NC(=O)CN2CCN(CC(=O)Nc3ccccc3Cl)CC2)cc1
Cytochrome P450 1A2
  AC50: 25.1 µM (inconclusive)

## C=C(C)CC1(NC(C)c2ccccc2)CCCCC1 (centres undefined)
[1]
  EC50: > 112 µM (not active)
[2]
  EC50: > 112 µM (not active)

## CCN(CC)C(=O)CSc1nnc(-c2ccco2)n1N
Cytochrome P450 1A2
  AC50: 17.8 µM (inconclusive)

## COc1ccc(OC)c(C2C(C#N)=C(N)Oc3c2c(C)nn3-c2cccc(Cl)c2)c1 (centres undefined)
[3]
  AC50: > 380 µM (inactive)
Protein RecA
  EC50: 6.94 µM (active)

## CCOc1ccc(N2C(=O)CC(Sc3nc4ccc(OCC)cc4s3)C2=O)cc1 (centres undefined)
[1]
  EC50: > 112 µM (not active)
[2]
  EC50: > 112 µM (not active)

## COc1ccc(N2CCN(CCNC(=O)c3c(C)cc(=O)oc3C)CC2)cc1
Cytochrome P450 1A2
  AC50: 25.1 µM (inconclusive)
Cytochrome P450 3A4
  AC50: 14.1 µM (inconclusive)

## O=C(Oc1cccc(OC(=O)c2ccco2)c1)c1ccco1
[3]
  AC50: 2.88 µM (active)
Protein RecA
  EC50: 19.8 µM (active)

## CCn1c(S)nnc1-c1ccc2ncccc2c1
Cytochrome P450 2C19; read-out: AC50
  AC50: 20 µM (inconclusive)
Cytochrome P450 3A4
  AC50: 3.98 µM (inconclusive)

## O=C(Nc1ccccc1)N1CC[C@@]2(CCCN(C(=O)c3cc(C(F)(F)F)cc(C(F)(F)F)c3)C2)C1
Cytochrome P450 2C19
  AC50: inconclusive
Cytochrome P450 1A2
  AC50: 25.1 µM (inconclusive)
Cytochrome P450 3A4
  AC50: 12.6 µM (inconclusive)

## O=C(Cn1nc(C(=O)O)c2ccccc2c1=O)NCC1CCCO1 (centres undefined)
[1]
  EC50: > 112 µM (not active)
[2]
  EC50: > 112 µM (not active)

## COc1ccc(C(=O)N2CCC3(CCCN(C(=O)Nc4cccc(F)c4)C3)CC2)cc1
Cytochrome P450 2C19; read-out: AC50
  AC50: 39.8 µM (inconclusive)

## Cc1ccccc1N1C(=O)c2ccccc2C1Nc1cccnc1 (centres undefined)
[3]
  AC50: > 380 µM (inactive)
Protein RecA
  EC50: > 380 µM (inactive)

## O=C(c1nc2ccc([N+](=O)[O-])cc2nc1O)[C@@H](O)c1ccc2c(c1)OCO2
Cytochrome P450 1A2
  AC50: 3.16 µM (inconclusive)

## COc1cc(/C=N/NC(=S)Nc2cccc(Cl)c2C)ccc1OCC(=O)N1CC(C)OC(C)C1 (centres undefined)
[3]
  AC50: 17.5 µM (active)
Protein RecA
  EC50: 4 µM (active)

## CC1=C(C(=O)OCc2ccccc2)C(c2ccc(Cl)cc2)NC(=O)N1CCCCCC(=O)O (centres undefined)
Cytochrome P450 2C19; read-out: AC50
  AC50: 39.8 µM (inconclusive)
Cytochrome P450 3A4
  AC50: 10 µM (inconclusive)

## COc1cc(C[C@H]2C(=O)OC[C@@H]2Cc2ccc(OC)c(OC)c2)ccc1O [ARCTIGENIN]
Cytochrome P450 2C19; read-out: AC50
  AC50: 0.00251 µM (inconclusive)
Cytochrome P450 1A2
  AC50: 31.6 µM (inconclusive)
